How the values were obtained:
[1] = Selective index, ratio of CC50 for human MT4 cells to EC50 for HIV1 3B
[2] = Cytotoxicity against human MT4 cells as reduction in cell viability after 5 days by MTT assay; type: cell-based

In the case of `Cc1cn([C@H]2C[C@H](N=[N+]=[N-])[C@@H](CO)O2)c(=O)[nH]c1=O` [ZIDOVUDINE], the “Ratio CC50/EC50” value [1] was greater than 6192 and the CC50 at 120 h [2] was greater than 93.5 µM.

For `O=C1Nc2ccc(Cl)cc2[C@@](C#CC2CC2)(C(F)(F)F)O1` [EFAVIRENZ], the “Ratio CC50/EC50” value [1] was greater than 1434 and the CC50 at 120 h [2] was greater than 6.34 µM.

For `CC(C)Nc1cccnc1N1CCN(C(=O)c2cc3cc(NS(C)(=O)=O)ccc3[nH]2)CC1` [DELAVIRDINE], the “Ratio CC50/EC50” value [1] was greater than 12 and the CC50 at 120 h [2] was greater than 3.83 µM.

With `Cc1ccnc2c1NC(=O)c1cccnc1N2C1CC1` [NEVIRAPINE] the CC50 at 120 h [2] was greater than 15 µM.
